This passage reports Ki results from publication PMC10202323, “4′-Deoxypyridoxine disrupts vitamin B6 homeostasis in Escherichia coli K12 through combined inhibition of cumulative B6 uptake and PLP-dependent enzyme activity” (Microbiology, 2023).

The structures appear in SMILES notation.

Format in all cases: biochemical
One experiment addresses T1, PdxH (Escherichia coli, UniProt P0AFI7).
T1 construct: recombinant, purified to homogeneity as previously reported
T1 sequence (P0AFI7 2-218): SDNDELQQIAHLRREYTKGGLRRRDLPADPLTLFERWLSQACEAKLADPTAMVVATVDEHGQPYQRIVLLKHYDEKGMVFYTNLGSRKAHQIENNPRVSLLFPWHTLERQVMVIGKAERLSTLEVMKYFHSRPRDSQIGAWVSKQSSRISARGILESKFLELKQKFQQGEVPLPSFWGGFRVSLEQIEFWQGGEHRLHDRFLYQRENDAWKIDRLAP
The experiment in a line: spectrophotometric PLP formation at […] nm. The conditions noted are these: read-out: apparent inhibition constant.

The target of another experiment is T2, GlyA (Escherichia coli, UniProt P0A825).
T2 construct: recombinant, purified to homogeneity as previously reported; apoenzyme reconstituted with PLP
T2 sequence (P0A825 1-417): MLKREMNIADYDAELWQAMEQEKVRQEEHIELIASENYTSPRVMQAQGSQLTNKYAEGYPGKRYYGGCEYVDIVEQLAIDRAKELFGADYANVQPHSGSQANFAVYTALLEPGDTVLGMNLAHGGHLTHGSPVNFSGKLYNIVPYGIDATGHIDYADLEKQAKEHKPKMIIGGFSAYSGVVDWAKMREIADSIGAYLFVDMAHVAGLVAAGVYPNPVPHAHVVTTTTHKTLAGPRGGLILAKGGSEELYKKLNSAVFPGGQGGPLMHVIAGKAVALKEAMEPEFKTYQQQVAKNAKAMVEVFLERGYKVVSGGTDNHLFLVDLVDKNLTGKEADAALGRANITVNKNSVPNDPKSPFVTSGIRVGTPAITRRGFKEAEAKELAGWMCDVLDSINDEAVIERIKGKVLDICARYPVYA
The experiment in a line: spectrophotometric coupled SHMT assay. The note with it: read-out: apparent inhibition constant.

Another experiment concerns the target T3, PdxK (Escherichia coli, UniProt P40191).
T3 construct: recombinant, purified to homogeneity as previously reported
The experiment in a line: spectrophotometric PLP formation at […] nm. The conditions noted are these: read-out: inhibition constant.

T3 sequence (P40191 whole entry): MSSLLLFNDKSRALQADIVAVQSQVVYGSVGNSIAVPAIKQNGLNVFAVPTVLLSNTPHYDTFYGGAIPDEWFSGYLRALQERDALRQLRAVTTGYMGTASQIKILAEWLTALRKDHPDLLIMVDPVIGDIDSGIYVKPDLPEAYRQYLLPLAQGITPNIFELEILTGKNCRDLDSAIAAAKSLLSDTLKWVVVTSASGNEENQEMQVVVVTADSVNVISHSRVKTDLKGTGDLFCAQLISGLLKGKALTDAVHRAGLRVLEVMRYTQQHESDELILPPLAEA

In the case of `Cc1ncc(COP(=O)(O)O)c(C)c1O` [4dPNP], the Ki was determined as 530 ± 30 µM on PdxH and 50 ± 30 µM at GlyA. On to `Cc1ncc(CO)c(C)c1O` [4dPN], for which the Ki on PdxK came out at 0.5 ± 0.6 µM.
